Data reported in ChEMBL document CHEMBL3885881, “DrugMatrix”.

Organism: Rattus norvegicus
Experiment: DrugMatrix - Regimen: Daily Repeat
Assay type: toxicity, organism-based, Sprague-Dawley
Set-up: regimen Daily Repeat, gender Male, age 6-8 weeks
Conditions: in vivo, po, route oral GAVAGE, vehicle 100 % WATER; for ABSOLUTE BASOPHIL / ABSOLUTE EOSINOPHIL / ABSOLUTE LYMPHOCYTE / ABSOLUTE MONOCYTE / ABSOLUTE SEGMENTED NEUTROPHIL / BASOPHIL / EOSINOPHIL / ERYTHROCYTE COUNT / HEMATOCRIT / HEMOGLOBIN / LEUKOCYTE COUNT / LYMPHOCYTE / MEAN CORPUSCULAR HEMOGLOBIN / MEAN CORPUSCULAR HEMOGLOBIN CONCENTRATION / MEAN CORPUSCULAR VOLUME / MONOCYTE / NEUTROPHIL / NUCLEATED RED BLOOD CELLS / PLATELET COUNT: tissue Blood; for ALANINE AMINOTRANSFERASE / ALBUMIN / ALKALINE PHOSPHATASE / ASPARTATE AMINOTRANSFERASE / BLOOD UREA NITROGEN / CARBON DIOXIDE / CHLORIDE / CHOLESTEROL / CREATINE PHOSPHOKINASE / CREATININE / GLUCOSE / LACTATE DEHYDROGENASE / LIPASE / PHOSPHORUS / POTASSIUM / SODIUM / TOTAL BILIRUBIN / TOTAL PROTEIN / URIC ACID: tissue Plasma
[1] = 0 mg/kg, 72 h, dose level Control, time 3 day
[2] = 0 mg/kg, 120 h, dose level Control, time 5 day
[3] = […], 72 h, dose 0.025 mg/Kg, dose level Low, time 3 day
[4] = […], 72 h, dose 0.25 mg/Kg, dose level High, time 3 day

## C[C@@H]1C[C@@H]([C@H](O)CC2CC(=O)NC(=O)C2)C(=O)[C@@H](C)C1 [CYCLOHEXIMIDE]
[1]
  ABSOLUTE BASOPHIL: 0 CELLS/uL
  ABSOLUTE EOSINOPHIL: 25 CELLS/uL
  ABSOLUTE LYMPHOCYTE: 14357 CELLS/uL
  ABSOLUTE MONOCYTE: 456.33 CELLS/uL
  ABSOLUTE SEGMENTED NEUTROPHIL: 1461.67 CELLS/uL
  BASOPHIL: 0%
  EOSINOPHIL: 0.17%
  ERYTHROCYTE COUNT: 5.85 x10E6/uL
  HEMATOCRIT: 37.62%
  HEMOGLOBIN: 13.87 G/DL
  LEUKOCYTE COUNT: 16.3 x10E3/uL
  LYMPHOCYTE: 88%
  MEAN CORPUSCULAR HEMOGLOBIN: 23.68 pg
  MEAN CORPUSCULAR HEMOGLOBIN CONCENTRATION: 36.88 G/DL
  MEAN CORPUSCULAR VOLUME: 64.23 fL
  MONOCYTE: 2.83%
  NEUTROPHIL: 9%
  NUCLEATED RED BLOOD CELLS: 0 /100WBC
  PLATELET COUNT: 1125.33 x10E3/uL
  ALANINE AMINOTRANSFERASE: 49.67 u/L
  ALBUMIN: 4.23 G/DL
  ALKALINE PHOSPHATASE: 400.83 u/L
  ASPARTATE AMINOTRANSFERASE: 89.17 u/L
  BLOOD UREA NITROGEN: 16 mg/dL
  CARBON DIOXIDE: 31.83 mmol/L
  CHLORIDE: 99 MEQ/L
  CHOLESTEROL: 76 mg/dL
  CREATINE PHOSPHOKINASE: 777.67 u/L
  CREATININE: 0.22 mg/dL
  GLUCOSE: 158.33 mg/dL
  LACTATE DEHYDROGENASE: 186.17 u/L
  LIPASE: 9.33 u/L
  PHOSPHORUS: 12.95 mg/dL
  POTASSIUM: 7.01 MEQ/L
  SODIUM: 141.53 MEQ/L
  TOTAL BILIRUBIN: 0.18 mg/dL
  TOTAL PROTEIN: 6.08 G/DL
  URIC ACID: 1.77 mg/dL
[2]
  ABSOLUTE BASOPHIL: 0 CELLS/uL
  ABSOLUTE EOSINOPHIL: 0 CELLS/uL
  ABSOLUTE LYMPHOCYTE: 8994.5 CELLS/uL
  ABSOLUTE MONOCYTE: 122.33 CELLS/uL
  ABSOLUTE SEGMENTED NEUTROPHIL: 666.5 CELLS/uL
  BASOPHIL: 0%
  EOSINOPHIL: 0%
  ERYTHROCYTE COUNT: 5.74 x10E6/uL
  HEMATOCRIT: 35.17%
  HEMOGLOBIN: 13.28 G/DL
  LEUKOCYTE COUNT: 9.78 x10E3/uL
  LYMPHOCYTE: 92.33%
  MEAN CORPUSCULAR HEMOGLOBIN: 23.15 pg
  MEAN CORPUSCULAR HEMOGLOBIN CONCENTRATION: 37.8 G/DL
  MEAN CORPUSCULAR VOLUME: 61.27 fL
  MONOCYTE: 1.33%
  NEUTROPHIL: 6.33%
  NUCLEATED RED BLOOD CELLS: 0 /100WBC
  PLATELET COUNT: 1117 x10E3/uL
  ALANINE AMINOTRANSFERASE: 47.83 u/L
  ALBUMIN: 4.33 G/DL
  ALKALINE PHOSPHATASE: 414.5 u/L
  ASPARTATE AMINOTRANSFERASE: 77.5 u/L
  BLOOD UREA NITROGEN: 17 mg/dL
  CARBON DIOXIDE: 32.33 mmol/L
  CHLORIDE: 99.33 MEQ/L
  CHOLESTEROL: 76.33 mg/dL
  CREATINE PHOSPHOKINASE: 363.67 u/L
  CREATININE: 0.25 mg/dL
  GLUCOSE: 173.5 mg/dL
  LACTATE DEHYDROGENASE: 129.33 u/L
  LIPASE: 9.17 u/L
  PHOSPHORUS: 11.52 mg/dL
  POTASSIUM: 5.73 MEQ/L
  SODIUM: 143.85 MEQ/L
  TOTAL BILIRUBIN: 0.2 mg/dL
  TOTAL PROTEIN: 6.43 G/DL
  URIC ACID: 0.97 mg/dL
[3]
  ABSOLUTE BASOPHIL: 0 CELLS/uL
  ABSOLUTE EOSINOPHIL: 0 CELLS/uL
  ABSOLUTE LYMPHOCYTE: 12322.33 CELLS/uL
  ABSOLUTE MONOCYTE: 322 CELLS/uL
  ABSOLUTE SEGMENTED NEUTROPHIL: 1589 CELLS/uL
  BASOPHIL: 0%
  EOSINOPHIL: 0%
  ERYTHROCYTE COUNT: 5.38 x10E6/uL
  HEMATOCRIT: 34.5%
  HEMOGLOBIN: 12.73 G/DL
  LEUKOCYTE COUNT: 14.23 x10E3/uL
  LYMPHOCYTE: 86.67%
  MEAN CORPUSCULAR HEMOGLOBIN: 23.63 pg
  MEAN CORPUSCULAR HEMOGLOBIN CONCENTRATION: 36.93 G/DL
  MEAN CORPUSCULAR VOLUME: 64 fL
  MONOCYTE: 2.33%
  NEUTROPHIL: 11%
  NUCLEATED RED BLOOD CELLS: 0 /100WBC
  PLATELET COUNT: 1165.33 x10E3/uL
[4]
  ABSOLUTE BASOPHIL: 0 CELLS/uL
  ABSOLUTE EOSINOPHIL: 0 CELLS/uL
  ABSOLUTE LYMPHOCYTE: 15128.33 CELLS/uL
  ABSOLUTE MONOCYTE: 349 CELLS/uL
  ABSOLUTE SEGMENTED NEUTROPHIL: 956 CELLS/uL
  BASOPHIL: 0%
  EOSINOPHIL: 0%
  ERYTHROCYTE COUNT: 5.63 x10E6/uL
  HEMATOCRIT: 36.7%
  HEMOGLOBIN: 13.27 G/DL
  LEUKOCYTE COUNT: 16.43 x10E3/uL
  LYMPHOCYTE: 91.67%
  MEAN CORPUSCULAR HEMOGLOBIN: 23.6 pg
  MEAN CORPUSCULAR HEMOGLOBIN CONCENTRATION: 36.17 G/DL
  MEAN CORPUSCULAR VOLUME: 65.3 fL
  MONOCYTE: 2%
  NEUTROPHIL: 6.33%
  NUCLEATED RED BLOOD CELLS: 0 /100WBC
  PLATELET COUNT: 1150.67 x10E3/uL
